According to paper PMC5601486, “Identification of 4-phenylquinolin-2(1H)-one as a specific allosteric inhibitor of Akt” (Scientific Reports, 2017):

What was measured:
ERK1/2 = test: Western blot of ERK1/2 phosphorylation; type: cell-based, Mouse; conditions: Neuro 2A cells
Description: Neuro 2A cells were seeded in 12-well plates in DMEM containing 5% FBS for 24 hr.
After overnight serum starvation (in 0% FBS DMEM), cells were incubated for 30 min at 37 °C with G7 or LY294002 or Torin 1 (Sigma Aldrich) at various concentrations, or DMSO control. IGF-1 was added to each well at a final concentration of 100 ng/mL. After 30-min incubation cells were washed with cold PBS and lysed with 50 µL lysis buffer containing 1% Triton X-100 and protease/phosphatase inhibitors (Cell Signaling Technology) or RIPA buffer (Santa Cruz Biotech). Samples were electrophoresed in 4–12% Bis-Tris gels (Life Technologies) at 150 V using MOPS SDS running buffer. Proteins were transferred electrophoretically to a PVDF or nitrocellulose membrane. For detection of cleaved […]
caspase 3 a Trans-Blot Turbo Transfer System (Bio-Rad, 25 V for 25 min) with PVDF membrane were used. […]
anti- GAPDH (14C10) antibody (#2118) (all antibodies were from Cell Signaling Technology unless indicated, 1:1000 dilution was used) at 4°C overnight, washed three times with TBS-T, then incubated with peroxidase-conjugated secondary antibody (Sigma-Aldrich) for 1 hr at room temperature. […] Band intensity was quantitated using Kodak 1D imaging analysis software. […]

[1] = system: JAK3(JH1domain-catalytic); test: KINOMEscan; conditions: 50000 nM
Description: KINOMEscan™ selectivity screen
The assay was perfor med at DiscoveRx Corporation according the methods published previously5. […] The kinases were produced in HEK-293 cells and subsequently tagged with DNA for qPCR detection. Streptavidin-coated magnetic beads were treated with biotinylated small molecule ligands to generate affinity resins for kinase
(§1) inhibitor or DMSO control was performed in polypropylene 384-well plates for 1 hr at room temperature. After wash with PBS buffer containing 0.05% Tween 20, the beads were incubated in elution buffer (PBS containing 0.05 % Tween 20 and 0.5 μM non-biotinylated affinity ligand) for 30 minutes at room temperature. The kinase concentration in the eluates was measured by qPCR.

NIH/3T3 cells = test: MTS cell proliferation/viability assay; type: cell-based; conditions: no longer proliferating, in comparison to LY or Torin 1
Description: Neuro 2A cells or NIH/3T3 cells (ATCC) were seeded at various confluency in a 96-well plate in 100 µL DMEM containing 5% FBS or 10% FBS with 1% penicillin streptomucin, respectively, at 37 °C in a 5% CO2 and 95% humidity incubator for 18 hr. To each well 1 µL inhibitor with various concentrations or DMSO was added. The final concentrations of the tested inhibitors were 0, 5, 10, 20, 40 and 80 µM for G7 and LY, and 0, 5, 10, 20, 40 and 80 nM for Torin1, based on their respective IC50 values (~µM for G7 and LY and ~ nM for Torin 1). After 24 hr, 20 µL of CellTiter 96® AQueous One Solution Reagent (Promega) were added. The plate was placed in the incubator for 2 h and absorbance at 490 nm was measured with a Synergy HT Microplate Reader (Bio-Tek).

TAK1 = test: KINOMEscan; conditions: 50000 nM
Description: KINOMEscan™ selectivity screen
(§2) Briefly, Kinase-tagged T7 phage strains were grown in parallel in an E. coli host derived from the BL21 strain. E. coli were grown to log-phase and infected with T7 phage from a frozen stock and incubated with shaking at 32°C until lysis (90-150 minutes). The kinases were produced in HEK-293 cells and subsequently tagged with DNA for qPCR detection. Streptavidin-coated magnetic beads were treated with biotinylated small molecule ligands to generate affinity resins for kinase
as §1

ASK2 = test: KINOMEscan; conditions: 50000 nM
Description: KINOMEscan™ selectivity screen
as §2, §1

PRKR = test: KINOMEscan; conditions: 50000 nM
Description: KINOMEscan™ selectivity screen
(§3) The assay was perfor med at DiscoveRx Corporation according the methods published previously5. Briefly, Kinase-tagged T7 phage strains were grown in parallel in an E. coli host derived from the BL21 strain. E. coli were grown to log-phase and infected with T7 phage from a frozen stock and incubated with shaking at 32°C until lysis (90-150 minutes). The kinases were produced in HEK-293 cells and subsequently tagged with DNA for qPCR detection. Streptavidin-coated magnetic beads were treated with biotinylated small molecule ligands to generate affinity resins for kinase
as §1

KIT(V559D,T670I) = test: KINOMEscan; conditions: 50000 nM
Description: KINOMEscan™ selectivity screen
as §3, §1

ZAK = test: KINOMEscan; conditions: 50000 nM
Description: KINOMEscan™ selectivity screen
as §2, §1

FLT1 = test: KINOMEscan; conditions: 50000 nM
Description: KINOMEscan™ selectivity screen
as §3, §1

[2] = system: ABL1(Q252H)-phosphorylated; test: KINOMEscan; conditions: 50000 nM
Description: KINOMEscan™ selectivity screen
as §3, §1

SGK = test: KINOMEscan; conditions: 50000 nM
Description: KINOMEscan™ selectivity screen
as §3, §1

YES = test: KINOMEscan; conditions: 50000 nM
Description: KINOMEscan™ selectivity screen
as §3, §1

CDC2L5 = system: T1, CDC2L5; test: KINOMEscan; type: binding, human; conditions: 50000 nM
T1 construct: purchased DiscoveRx KINOMEscan

LRRK2 = test: KINOMEscan; conditions: 50000 nM
Description: KINOMEscan™ selectivity screen
as §3, §1

FLT4 = test: KINOMEscan; conditions: 50000 nM
Description: KINOMEscan™ selectivity screen
as §3, §1

ERK3 = test: KINOMEscan; conditions: 50000 nM
Description: KINOMEscan™ selectivity screen
as §2, §1

AKT3 = test: KINOMEscan; conditions: 50000 nM
Description: KINOMEscan™ selectivity screen
as §3, §1

MERTK = test: KINOMEscan; conditions: 50000 nM
Description: KINOMEscan™ selectivity screen
as §3, §1

AURKC = test: KINOMEscan; conditions: 50000 nM
Description: KINOMEscan™ selectivity screen
as §3, §1

p38-gamma = test: KINOMEscan; conditions: 50000 nM
Description: KINOMEscan™ selectivity screen
as §2, §1

NEK4 = test: KINOMEscan; conditions: 50000 nM
Description: KINOMEscan™ selectivity screen
as §3, §1

DRAK1 = test: KINOMEscan; conditions: 50000 nM
Description: KINOMEscan™ selectivity screen
as §2, §1

CDC2L1 = test: KINOMEscan; conditions: 50000 nM
Description: KINOMEscan™ selectivity screen
as §2, §1

ICK = test: KINOMEscan; conditions: 50000 nM
Description: KINOMEscan™ selectivity screen
as §2, §1

EGFR(G719C) = test: KINOMEscan; conditions: 50000 nM
Description: KINOMEscan™ selectivity screen
as §2, §1

KIT(A829P) = test: KINOMEscan; conditions: 50000 nM
Description: KINOMEscan™ selectivity screen
as §3, §1

PKNB(M.tuberculosis) = system: T2, PKNB(M.tuberculosis); test: KINOMEscan; type: binding; conditions: 50000 nM
T2 construct: purchased DiscoveRx KINOMEscan

WNK3 = test: KINOMEscan; conditions: 50000 nM
Description: KINOMEscan™ selectivity screen
as §3, §1

MST1 = test: KINOMEscan; conditions: 50000 nM
Description: KINOMEscan™ selectivity screen
as §3, §1

NEK5 = test: KINOMEscan; conditions: 50000 nM
Description: KINOMEscan™ selectivity screen
as §3, §1

MEK2 = test: KINOMEscan; conditions: 50000 nM
Description: KINOMEscan™ selectivity screen
as §3, §1

PRKD1 = test: KINOMEscan; conditions: 50000 nM
Description: KINOMEscan™ selectivity screen
as §3, §1

Oc1cc(-c2ccccc2)c2ccccc2n1 [G7, 4-phenylquinolin-2(1H)-one]
phosphorylation of ERK1/2 (ERK1/2): neither inhibited | Percent Control [1]: 56% | inhibition of confluent NIH/3T3 cells (NIH/3T3 cells): considerably less inhibition | Percent Control (TAK1): 61% | Percent Control (ASK2): 78% | Percent Control (PRKR): 74% | Percent Control (KIT(V559D,T670I)): 44% | Percent Control (ZAK): 100% | Percent Control (FLT1): 81% | Percent Control [2]: 33% | Percent Control (SGK): 66% | Percent Control (YES): 93% | Percent Control (CDC2L5): 87% | Percent Control (LRRK2): 55% | Percent Control (FLT4): 72% | Percent Control (ERK3): 92% | Percent Control (AKT3): 100% | Percent Control (MERTK): 42% | Percent Control (AURKC): 66% | Percent Control (p38-gamma): 100% | Percent Control (NEK4): 95% | Percent Control (DRAK1): 65% | Percent Control (CDC2L1): 100% | Percent Control (ICK): 71% | Percent Control (EGFR(G719C)): 79% | Percent Control (KIT(A829P)): 78% | Percent Control (PKNB(M.tuberculosis)): 43% | Percent Control (WNK3): 98% | Percent Control (MST1): 90% | Percent Control (NEK5): 100% | Percent Control (MEK2): 72% | Percent Control (PRKD1): 96%
